Reference: patent US20250019387A1 (Frontier Medicines Corporation, priority 0001, published 2025)

biological target: KRAS G12C and cRAF (Ras-binding domain) interaction (Homo sapiens (Human), UniProt P01116, C118S/C51S/C80L/G12C); assay: Inhibition of KRAS G12C and cRAF binding (AlphaScreen); details: GMPPNP-loaded KRAS G12C, 19-20 hours incubation with compound; read-out: IC50 (Inhibition of KRAS G12C and cRAF Binding)
Outline: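 IC50 values come from 4-parameter nonlinear regression of AlphaScreen signal (680 nm excitation, 570 nm emission). Compound plates sat 19-20 h at room temperature before RBD and donor/acceptor beads were added in Hepes pH 7.4 buffer with 150 mM NaCl, 5 mM MgCl2, 2% DMSO for 60-90 min; biotin-AviTag-GST replaced RBD to flag assay-technology interferers.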

Sequence of KRAS G12C and cRAF (Ras-binding domain) interaction (P01116 other isoform, or with tags, fused parts or gaps G12C/C51S/C80L/C118S): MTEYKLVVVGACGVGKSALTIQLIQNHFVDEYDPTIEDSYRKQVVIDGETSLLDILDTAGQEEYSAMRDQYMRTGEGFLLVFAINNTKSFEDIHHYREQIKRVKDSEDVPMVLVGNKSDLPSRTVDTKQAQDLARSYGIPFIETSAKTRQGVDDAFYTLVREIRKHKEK

Row | IC50 [nM] | SMILES
1 | 100 to 500 | CN(c1nc(OC[C@@]23CCCN2C[C@H](F)C3)nc2c(F)c(-c3cccc4ccc(F)c(Cl)c34)ncc12)[C@@H]1CCN(C(=O)/C=C/C2CCCO2)C1 (stereo partly drawn) [Example 252, (E)-1-((R)-3-((7-(8-chloro-7-fluoronaphthalen-1-yl)-8-fluoro-2-(((2R,7aS)-2-fluorotetrahydro-1H-pyrrolizin-7a(5H)-yl)methoxy)pyrido[4,3-d]pyrimidin-4-yl)(methyl)amino)pyrrolidin-1-yl)-3-(tetrahydrofuran-2-yl)prop-2-en-1-one]
2 | 100 to 500 | C=CC(=O)N1CC[C@@H](N(C)c2nc(OCC34CCCN3CCC4)nc3c(F)c(-c4cccc5ccc(F)c(CC)c45)ncc23)C1 [Example 253, (R)-1-(3-((7-(8-ethyl-7-fluoronaphthalen-1-yl)-8-fluoro-2-((tetrahydro-1H-pyrrolizin-7a(5H)-yl)methoxy)pyrido[4,3-d]pyrimidin-4-yl)(methyl)amino)pyrrolidin-1-yl)prop-2-en-1-one]
3 | 10 to 100 | C=CC(=O)N1CC(CN(C)c2nc(OC[C@@]34CCCN3C[C@H](F)C4)nc3c(F)c(-c4cccc5ccc(F)c(CC)c45)ncc23)C1 [Example 254, 1-(3-(((7-(8-ethyl-7-fluoronaphthalen-1-yl)-8-fluoro-2-(((2R,7aS)-2-fluorohexahydro-1H-pyrrolizin-7a-yl)methoxy)pyrido[4,3-d]pyrimidin-4-yl)(methyl)amino)methyl)azetidin-1-yl)prop-2-en-1-one]
4 | 100 to 500 | Cc1nccc(/C=C/C(=O)N2CCC[C@@H](Nc3nc(OC[C@@]45CCCN4C[C@H](F)C5)nc4c(F)c(-c5cccc6cccc(Cl)c56)ncc34)C2)n1 [Example 262, (E)-1-((R)-3-((7-(8-chloronaphthalen-1-yl)-8-fluoro-2-(((2R,7aS)-2-fluorotetrahydro-1H-pyrrolizin-7a(5H)-yl)methoxy)pyrido[4,3-d]pyrimidin-4-yl)amino)piperidin-1-yl)-3-(2-methylpyrimidin-4-yl)prop-2-en-1-one]
5 | > 500 | C=CC(=O)N1CC[C@@H](N(C)c2nc(OC[C@@]34CCCN3C[C@H](F)C4)nc3c(F)c(-c4cccc5cc(Cl)cc(Cl)c45)ncc23)C1 [Example 263, 1-((R)-3-((7-(6,8-dichloronaphthalen-1-yl)-8-fluoro-2-(((2R,7aS)-2-fluorotetrahydro-1H-pyrrolizin-7a(5H)-yl)methoxy)pyrido[4,3-d]pyrimidin-4-yl)(methyl)amino)pyrrolidin-1-yl)prop-2-en-1-one]
6 | 100 to 500 | C=CC(=O)N1CC[C@@H](N(CCC#N)c2nc(OC[C@@]34CCCN3C[C@H](F)C4)nc3c(F)c(-c4cccc5cccc(Cl)c45)ncc23)C1 [Example 264, 3-(((R)-1-acryloylpyrrolidin-3-yl)(7-(8-chloronaphthalen-1-yl)-8-fluoro-2-(((2R,7aS)-2-fluorohexahydro-1H-pyrrolizin-7a-yl)methoxy)pyrido[4,3-d]pyrimidin-4-yl)amino)propanenitrile]
7 | 10 to 100 | C=CC(=O)N1CC[C@@H](N(C)c2nc(OCC34CCCN3CCC4)nc3c(F)c(-c4cccc5ccc(F)c(F)c45)ncc23)C1 [Example 265, (R)-1-(3-((7-(7,8-difluoronaphthalen-1-yl)-8-fluoro-2-((tetrahydro-1H-pyrrolizin-7a(5H)-yl)methoxy)pyrido[4,3-d]pyrimidin-4-yl)(methyl)amino)pyrrolidin-1-yl)prop-2-en-1-one]
8 | 100 to 500 | C=CC(=O)N1CC[C@@H](N(C)c2nc(OC[C@@]34CCCN3C[C@H](F)C4)nc3c(F)c(-c4cccc5cc(F)c(F)cc45)ncc23)C1 [Example 266, 1-((R)-3-((7-(6,7-difluoronaphthalen-1-yl)-8-fluoro-2-(((2R,7aS)-2-fluorotetrahydro-1H-pyrrolizin-7a(5H)-yl)methoxy)pyrido[4,3-d]pyrimidin-4-yl)(methyl)amino)pyrrolidin-1-yl)prop-2-en-1-one]
9 | 100 to 500 | CN(c1nc(OC[C@@]23CCCN2C[C@H](F)C3)nc2c(F)c(-c3cccc4cccc(Cl)c34)ncc12)[C@@H]1CCN(C(=O)C=C2CCC2)C1 [Example 267, 1-((R)-3-((7-(8-chloronaphthalen-1-yl)-8-fluoro-2-(((2R,7aS)-2-fluorotetrahydro-1H-pyrrolizin-7a(5H)-yl)methoxy)pyrido[4,3-d]pyrimidin-4-yl)(methyl)amino)pyrrolidin-1-yl)-2-cyclobutylideneethan-1-one]
10 | 100 to 500 | C=CC(=O)N1CC[C@@H](N(C)c2nc(OC[C@@]34CCCN3C[C@H](F)C4)nc3c(F)c(-c4cccc5cc(F)cc(F)c45)ncc23)C1 [Example 268, 1-((R)-3-((7-(6,8-difluoronaphthalen-1-yl)-8-fluoro-2-(((2R,7aS)-2-fluorohexahydro-1H-pyrrolizin-7a-yl)methoxy)pyrido[4,3-d]pyrimidin-4-yl)(methyl)amino)pyrrolidin-1-yl)prop-2-en-1-one]
11 | 100 to 500 | C=CC(=O)N1CC[C@@H](N(C)c2nc(OCC34CCCN3CCC4)nc3c(F)c(-c4cccc5c(F)cc(F)cc45)ncc23)C1 [Example 269, (R)-1-(3-((7-(5,7-difluoronaphthalen-1-yl)-8-fluoro-2-((hexahydro-1H-pyrrolizin-7a-yl)methoxy)pyrido[4,3-d]pyrimidin-4-yl)(methyl)amino)pyrrolidin-1-yl)prop-2-en-1-one]
12 | 10 to 100 | Cc1nccc(/C=C/C(=O)N2CC[C@@H](N(C)c3nc(OC[C@@]45CCCN4C[C@H](F)C5)nc4c(F)c(-c5cccc6ccc(F)c(Cl)c56)ncc34)C2)n1 [Example 270, (E)-1-((R)-3-((7-(8-chloro-7-fluoronaphthalen-1-yl)-8-fluoro-2-(((2R,7aS)-2-fluorotetrahydro-1H-pyrrolizin-7a(5H)-yl)methoxy)pyrido[4,3-d]pyrimidin-4-yl)(methyl)amino)pyrrolidin-1-yl)-3-(2-methylpyrimidin-4-yl)prop-2-en-1-one]
13 | 10 to 100 | Cc1nccc(/C=C/C(=O)N2CC[C@@H](N(C)c3nc(OC[C@@]45CCCN4C[C@H](F)C5)nc4c(F)c(-c5cccc6ccc(F)c(F)c56)ncc34)C2)n1 [Example 271, (E)-1-((R)-3-((7-(7,8-difluoronaphthalen-1-yl)-8-fluoro-2-(((2R,7aS)-2-fluorotetrahydro-1H-pyrrolizin-7a(5H)-yl)methoxy)pyrido[4,3-d]pyrimidin-4-yl)(methyl)amino)pyrrolidin-1-yl)-3-(2-methylpyrimidin-4-yl)prop-2-en-1-one]
14 | 10 to 100 | Cc1cc(/C=C/C(=O)N2CC[C@@H](N(C)c3nc(OC[C@@]45CCCN4C[C@H](F)C5)nc4c(F)c(-c5cccc6ccc(F)c(Cl)c56)ncc34)C2)nc(C)n1 [Example 272, (E)-1-((R)-3-((7-(8-chloro-7-fluoronaphthalen-1-yl)-8-fluoro-2-(((2R,7aS)-2-fluorotetrahydro-1H-pyrrolizin-7a(5H)-yl)methoxy)pyrido[4,3-d]pyrimidin-4-yl)(methyl)amino)pyrrolidin-1-yl)-3-(2,6-dimethylpyrimidin-4-yl)prop-2-en-1-one]
15 | 100 to 500 | Cc1cc(/C=C/C(=O)N2CC(CN(C)c3nc(OC[C@@]45CCCN4C[C@H](F)C5)nc4c(F)c(-c5cccc6ccc(F)c(Cl)c56)ncc34)C2)nc(C)n1 [Example 273, (E)-1-(3-(((7-(8-chloro-7-fluoronaphthalen-1-yl)-8-fluoro-2-(((2R,7aS)-2-fluorotetrahydro-1H-pyrrolizin-7a(5H)-yl)methoxy)pyrido[4,3-d]pyrimidin-4-yl)(methyl)amino)methyl)azetidin-1-yl)-3-(2,6-dimethylpyrimidin-4-yl)prop-2-en-1-one]
16 | 10 to 100 | Cc1cc(/C=C/C(=O)N2CC(CN(C)c3nc(OC[C@@]45CCCN4C[C@H](F)C5)nc4c(F)c(-c5cccc6ccc(F)c(F)c56)ncc34)C2)nc(C)n1 [Example 274, (E)-1-(3-(((7-(7,8-difluoronaphthalen-1-yl)-8-fluoro-2-(((2R,7aS)-2-fluorotetrahydro-1H-pyrrolizin-7a(5H)-yl)methoxy)pyrido[4,3-d]pyrimidin-4-yl)(methyl)amino)methyl)azetidin-1-yl)-3-(2,6-dimethylpyrimidin-4-yl)prop-2-en-1-one]
17 | 100 to 500 | Cc1cc(/C=C/C(=O)N2CC(CN(C)c3nc(OC[C@@]45CCCN4C[C@H](F)C5)nc4c(F)c(-c5cccc6cccc(Cl)c56)ncc34)C2)nc(C)n1 [Example 275, (E)-1-(3-(((7-(8-chloronaphthalen-1-yl)-8-fluoro-2-(((2R,7aS)-2-fluorohexahydro-1H-pyrrolizin-7a-yl)methoxy)pyrido[4,3-d]pyrimidin-4-yl)(methyl)amino)methyl)azetidin-1-yl)-3-(2,6-dimethylpyrimidin-4-yl)prop-2-en-1-one]

Row | SMILES | IC50 [nM]
18 | Cc1nccc(/C=C/C(=O)N2CCC[C@H](N(C)c3nc(OC[C@@]45CCCN4C[C@H](F)C5)nc4c(F)c(-c5cccc6cccc(Cl)c56)ncc34)C2)n1 [Example 260, (E)-1-((S)-3-((7-(8-chloronaphthalen-1-yl)-8-fluoro-2-(((2R,7aS)-2-fluorotetrahydro-1H-pyrrolizin-7a(5H)-yl)methoxy)pyrido[4,3-d]pyrimidin-4-yl)(methyl)amino)piperidin-1-yl)-3-(2-methylpyrimidin-4-yl)prop-2-en-1-one] | 100 to 500
19 | Cc1nccc(/C=C/C(=O)N2CCC(Nc3nc(OC[C@@]45CCCN4C[C@H](F)C5)nc4c(F)c(-c5cccc6cccc(Cl)c56)ncc34)CC2)n1 [Example 261, (E)-1-(4-((7-(8-chloronaphthalen-1-yl)-8-fluoro-2-(((2R,7aS)-2-fluorotetrahydro-1H-pyrrolizin-7a(5H)-yl)methoxy)pyrido[4,3-d]pyrimidin-4-yl)amino)piperidin-1-yl)-3-(2-methylpyrimidin-4-yl)prop-2-en-1-one] | > 500
